The text below walks through data of patent US20240228555A9, “ANTIMICROBIAL PEPTIDOMIMETICS” (Basilea Pharmaceutica International AG, Allschwil, priority 2020, published 2024).

Data set [1] concerns Escherichia coli ATCC 25922. To be noted: ATCC 25922. In outline:
(§1)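 First, bacterial colonies are suspended in saline and adjusted to 0.5 McFarland. Next, the suspension is diluted into cation-adjusted Mueller-Hinton II broth (approx. 5×10^5 CFU/mL). Finally, it is added to two-fold serially diluted peptide, with polysorbate 80 at 0.002% final.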

Data set [2] relates to Klebsiella pneumoniae SSI3010. To be noted: SSI3010. An outline of the steps: as §1
In data set [3] the test system is Escherichia coli MCR-1 Af 45. The conditions noted are these: Mueller-Hinton broth II, no visible growth after 18-20 hours at 35° C. In outline: as §1
Data set [4] relates to human red blood cells (hRBC). The class given is cell-based. To be noted: red cells of human, 1 h, 0.2 g/L. In outline:
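Percent lysis was derived from supernatant absorbance at 540 nm relative to full lysis by 2.5% Triton X-100 (PBS defines 0%). Compounds, 200 μg/mL, were exposed for 1 h at 37° C to a 20% (v/v) suspension of washed human red cells.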

Where a SMILES comes first, the peptide text is derived from it.

With `CC[C@H](C)[C@H](NC(=O)[C@@H]1C[C@@H](O)CN1C(=O)[C@@H](N)C(C)C)C(=O)N[C@H](C(=O)N[C@@H](Cc1ccc(O)cc1)C(=O)N[C@@H]1C(=O)N[C@@H](CC(N)=O)C(=O)N[C@@H](CCCNC(=N)N)C(=O)N[C@@H](CCN)C(=O)N[C@@H]([C@@H](C)O)C(=O)N[C@H](CCN)C(=O)N[C@@H](CCCCN)C(=O)N[C@H](C(=O)N[C@@H](CCN)C(=O)N[C@@H](CCCNC(C)C)C(=O)N[C@@H](Cc2ccc(O)cc2)C(=O)O)CSSC1(C)C)[C@@H](C)O` [Example 136, Hyp-Ile-Thr-Tyr-Pen-Asn-Arg-Dab-Thr-^DDab-Lys-Cys-Dab-Orn(iPr)-Tyr] (HELM PEPTIDE1{V.[Hyp].I.T.Y.[Pen].N.R.[Dab].T.[NCC[C@@H](N[*:1])C(=O)[*:2]].K.C.[Dab].[CC(C)NCCC[C@H](N[*:1])C(=O)[*:2]].Y}$PEPTIDE1,PEPTIDE1,6:R3-13:R3$$$V2.0), the “Escherichia coli ATCC 25922 MIC” value in data set [1] is 0.125 µg/mL. The “Klebsiella pneumoniae SSI3010 MIC” value in data set [2] is 0.5 µg/mL. In addition, the “Escherichia coli MCR-1 Af 45 MIC” value in data set [3] is 0.25 µg/mL. The “Hemolysis at 0.2 g/L” value in data set [4] was less than 1%.
The corresponding values for `CC[C@H](C)[C@H](NC(=O)[C@@H](NC(=O)[C@@H]1C[C@@H](N)CN1C(=O)[C@@H](N)C(C)C)[C@@H](C)CC)C(=O)N[C@@H](Cc1ccc(O)cc1)C(=O)N[C@@H]1C(=O)N[C@@H](CC(N)=O)C(=O)N[C@@H](CCCNC(=N)N)C(=O)N[C@@H](CCN)C(=O)N[C@@H]([C@@H](C)O)C(=O)N[C@H](CCN)C(=O)N[C@@H]([C@@H](C)CC)C(=O)N[C@H](C(=O)N[C@@H](CCN)C(=O)N[C@@H](CCCNC(=N)N)C(=O)N[C@@H](Cc2ccc(O)cc2)C(=O)O)CSSC1(C)C` [Example 90, Val-Pro((4R)NH2)-Ile-Ile-Tyr-Pen-Asn-Arg-Dab-Thr-^DDab-Ile-Cys-Dab-Arg-Tyr] (HELM PEPTIDE1{V.[N[C@@H]1C[C@@H](C(=O)[*:2])N([*:1])C1].I.I.Y.[Pen].N.R.[Dab].T.[NCC[C@@H](N[*:1])C(=O)[*:2]].I.C.[Dab].R.Y}$PEPTIDE1,PEPTIDE1,6:R3-13:R3$$$V2.0) are 0.125 µg/mL, 0.25 µg/mL, 0.0625 µg/mL and less than 1%.
The corresponding values for `CC[C@H](C)[C@H](NC(=O)[C@@H](NC(=O)[C@@H]1C[C@@H](O)CN1C(=O)[C@@H](N)C(C)C)[C@@H](C)CC)C(=O)N[C@@H](Cc1ccc(O)cc1)C(=O)N[C@@H]1C(=O)N[C@@H](CC(N)=O)C(=O)N[C@@H](CCCNC(=N)N)C(=O)N[C@@H](CCN)C(=O)N[C@@H]([C@@H](C)O)C(=O)N[C@H](CCN)C(=O)N[C@@H](CCCCN)C(=O)N[C@H](C(=O)N[C@@H](CCN)C(=O)N[C@@H](CCCNC(N)=O)C(=O)N[C@@H](Cc2ccc(O)cc2)C(=O)O)CSSC1(C)C` [Example 73, Val-Hyp-Ile-Ile-Tyr-Pen-Asn-Arg-Dab-Thr-^DDab-Lys-Cys-Dab-Cit-Tyr] (HELM PEPTIDE1{V.[Hyp].I.I.Y.[Pen].N.R.[Dab].T.[NCC[C@@H](N[*:1])C(=O)[*:2]].K.C.[Dab].[Cit].Y}$PEPTIDE1,PEPTIDE1,6:R3-13:R3$$$V2.0) are 0.5 µg/mL, 0.5 µg/mL, 0.25 µg/mL and less than 1%.
